Measurements from patent US4320052A, “Derivatives of A-30912A nucleus” (Eli Lilly and Company, priority 1980, dated 1982).
Several values for one entry are separate records, joined by “and”; a condition that tells them apart may be missing. Equal entries are not always repeated. Where two headings read alike, the source gives them in different places. Numbered stars: 1 amine (or outer) side, 2 acyl side, 3 side chain; on linkers, the order of the positions; unused ones are H or OH. Bridge positions count the residues as written; N and C are the ends. Square brackets hold non-standard residues; d marks the D form. Peptide text beside a SMILES is read from it. * marks the point of attachment. Orn(4R-OH,5R-OH) = O=C([C@H](C[C@@H](O)[C@@H](O)N[*:3])N[*:1])[*:2]; hTyr(3S-OH,4S-OH) = N[C@H](C(=O)O)[C@H](O)[C@@H](O)c1ccc(O)cc1; Pro(3S-OH,4S-Me) = C[C@H]1CN[C@H](C(=O)O)[C@H]1O; Palmitoleoyl = CCCCCC/C=C\CCCCCCCC(=O)*; Heptadecanoyl = CCCCCCCCCCCCCCCCC(=O)*; Oleoyl = CCCCCCCC/C=C\CCCCCCCC(=O)*; X2 = CCCCC/C=C/C/C=C/CCCCCCCC(=O)*; X4 = CCCCCCCC/C=C\CCCCCCCCCC(=O)*; Hyp = O=C(O)[C@@H]1C[C@@H](O)CN1; X3 = CCCCCCCC/C=C/CCCCCCCC(=O)*; X6 = CCCCCC/C=C\CCCCCCCCCC(=O)*; X5 = CCCCCC/C=C/CCCCCCCC(=O)*; Lauroyl = CCCCCCCCCCCC(=O)*

How the values were obtained:
[1] = Blood levels after oral administration in mice (bioassay vs. Aspergillus montevidensis A35137); settings: mouse, in vivo; for Blood Levels After Oral Administration In Mice: 240 min; for concentration at 4 h: po, 416 mg/kg
Source text: determined by bioassay vs. Aspergillus montevidensis A35137.

[2] = tested on: Saccharomyces pastoranius X-52; experiment: Agar plate disc diffusion test (zone of inhibition); assay type: cell-based, Saccharomyces pastorianus; settings: X52, suspension in methanol 1 mg/ml, 7mm disc, 24-48 hours at 25-37° C., read-out: Size of zone of inhibition, Saccharomyces pastoranius X-52
Protocol: (§1) Tables II and III give the results of the testing in vitro of the compounds of Examples 1-16 by agar-plate disc-diffusion methods. In Table II activity is measured by the size (diameter in mm.) of the observed zone of inhibition of the microorganism produced by the test compound. In Table III, activity is measured by the minimal inhibitory concentration (MIC) of the substance (μg/dic) required to inhibit growth of the test organism. Table IV gives the results of the testing in vitro of the n-tridecanoyl derivative of A30912A nucleus (Formula III, R is n-C12 H25) against five strains of Candida albicans by the agar dilution method. In […] activity is measured by the minimal inhibitory concentration (MIC) of the substance (μg/ml) required to inhibit the test organism.
(§2) ^(a) Compounds were tested as suspension in methanol at a
(§3) concentration of 1 mg/ml. by dipping a 7mm disc into the suspension and
(§4) placing it on the agar surface. Incubation: 24-48 hours at 25-37°

Candida albicans A-26 [3] = experiment: Agar plate disc diffusion test (MIC); assay type: cell-based; settings: 0.01M sodium borate pH 7.5; 20 μg/disc top, twofold dilutions; 24 hours, 30° C.
Protocol: as §1
(§5) *Compounds were suspended in 0.01M sodium borate solution, pH 7.5. The
(§6) compounds were tested at 20 μg/disc at top level and at twofold
(§7) dilutions until end points were reached. Incubation: 24 hours; 30°

[4] = tested on: Trichophyton mentagrophytes #6; experiment: Agar plate disc diffusion test (MIC); assay type: cell-based; settings: 0.01M sodium borate pH 7.5; 20 μg/disc top, twofold dilutions; 24 hours, 30° C.
Protocol: as §1, §5, §6, §7

Candida albicans A-26 [5] = experiment: In vivo activity against Candida albicans A-26 infection in mice; parameters: species or system mice infected with Candida albicans A-26; settings: mice, subcutaneous; for ED50 / minimal effective dose: Candida albicans, A26, sc, 24 h; for ED50: increase in survival time, read-out: ED50; for minimal effective dose: read-out: Lowest Active Dose
Protocol: The results of in vivo tests to evaluate the effectiveness of the compound of Examples 1-16 against an infection caused by Candida albicans A-26 in mice are given in Table V, where activity is measured by the ED50 value (the dose in mg/kg. required to cure 50% of the test animals). Where an ED50 value was not obtained, activity is indicated by the lowest dose at which a significant anti-fungal effect is observed. In this test, groups of male albino mice (specific pathogen free), weighing 18 to 20 grams, are infected intravenously with Candida albicans A-26. The animals are X-irradiated 24 hours prior to infection at about 50 roentgens per minute for 8 minutes (400 total dose) to reduce immune responses to the infecting organism. At 0, 4, and 24 hours post infection each group of mice is given graded doses subcutaneously of the test compound as a suspension in 33% polyethylene glycol-water. The day of death for each animal is recorded.
mg/kg. Dosages given 0, 4, and 24 hours post injection as suspension of
test compound in 30% PEG--H2 O. Number of mice receiving test
compounds at each dosage level; 6 mice per group. Number of mice in
control (untreated) group: 10 mice per group.
**As measured by increase in survival time of treated animals versus
control, calculated by method of Reed v Mueuch, American J. Hygiene, 27,

Candida albicans A-26 [6] = experiment: Agar plate disc diffusion test (zone of inhibition); assay type: cell-based; settings: suspension in methanol 1 mg/ml, 7mm disc; 24-48 hours at 25-37° C.
Protocol: as §1, §2, §3, §4

Neurospora crassa 846 = experiment: as above; assay type: cell-based; settings: Neurospora crassa, 846, suspension in methanol 1 mg/ml, 7mm disc
Protocol: as §1, §2, §3, §4

[7] = tested on: Trichophyton mentagraphytes A-23; experiment: as above; assay type: cell-based, Trichophyton mentagrophytes; settings: A23, suspension in methanol 1 mg/ml, 7mm disc
Protocol: as §1, §2, §3, §4

[8] = schedule B (80, 40, 20, 10 mg/kg), 0, 4, 24 hours
[9] = 24-48 hours at 25-37° C., read-out: Size of zone of inhibition, Neurospora crassa 846
[10] = schedule A (40, 20, 15, and 10 mg/kg), 0, 4, 24 hours
[11] = *distinct measurable zone of inhibition with regrowth of organism around disc, read-out: Size of zone of inhibition, Trichophyton mentagraphytes A-23 (*)
[12] = *distinct measurable zone of inhibition with regrowth of organism around disc, read-out: Size of zone of inhibition, Neurospora crassa 846 (*)
[13] = 24-48 hours at 25-37° C., read-out: Size of zone of inhibition, Trichophyton mentagraphytes A-23

Row | Blood Levels After Oral Administration In Mice [1] [ng/mL] | MIC, Candida albicans A-26 (Candida albicans A-26 [3]) | MIC, Trichophyton mentagrophytes #6 [4] [μg/disc] | concentration at 4 h [1] [ng/mL] | Structure (SMILES) | zone of inhibition at 1000 µg/mL [2] [mm] | ED50 (Candida albicans A-26 [5]; [8]) [mg/kg] | minimal effective dose (Candida albicans A-26 [5]; [8]) [mg/kg] | Size of zone of inhibition, Candida albicans A-26 (Candida albicans A-26 [6]) [mm] | zone of inhibition at 1000 µg/mL (Neurospora crassa 846; [9]) [mm] | ED50 (Candida albicans A-26 [5]; [10]) [mg/kg] | minimal effective dose (Candida albicans A-26 [5]; [10]) [mg/kg] | zone of inhibition at 1000 µg/mL [7, 11] [mm] | zone of inhibition at 1000 µg/mL (Neurospora crassa 846; [12]) [mm] | Lowest Active Dose (Candida albicans A-26 [5]; [10]) [mg/kg] | zone of inhibition at 1000 µg/mL [7, 13] [mm]
1 | 0 | 1.25 μg/disc | 0.078 |  | CCCCCCCCCCCC(=O)N[C@H]1C[C@@H](O)[C@@H](O)NC(=O)[C@@H]2[C@@H](O)[C@@H](C)CN2C(=O)[C@H]([C@@H](C)O)NC(=O)[C@H]([C@H](O)[C@@H](O)c2ccc(O)cc2)NC(=O)[C@@H]2C[C@@H](O)CN2C(=O)[C@H]([C@@H](C)O)NC1=O [Example 1] (Lauroyl-[Orn(4R-OH,5R-OH)]T[Hyp][hTyr(3S-OH,4S-OH)]T[Pro(3S-OH,4S-Me)]; lactam 1-C) | 16 | 62 | 20 | 25 | 40 |  |  |  |  |  | 
2 |  |  |  |  | CCCCCC/C=C/CCCCCCCC(=O)N[C@H]1C[C@@H](O)[C@@H](O)NC(=O)[C@@H]2[C@@H](O)[C@@H](C)CN2C(=O)[C@H]([C@@H](C)O)NC(=O)[C@H]([C@H](O)[C@@H](O)c2ccc(O)cc2)NC(=O)[C@@H]2C[C@@H](O)CN2C(=O)[C@H]([C@@H](C)O)NC1=O [Example 3] (X5-[Orn(4R-OH,5R-OH)]T[Hyp][hTyr(3S-OH,4S-OH)]T[Pro(3S-OH,4S-Me)]; lactam 1-C) | 19 |  |  | 24 |  | 40 | 20 | 50 | 40 |  | 
3 |  |  | < 0.039 | 190 | CCCCCC/C=C\CCCCCCCC(=O)N[C@H]1C[C@@H](O)[C@@H](O)NC(=O)[C@@H]2[C@@H](O)[C@@H](C)CN2C(=O)[C@H]([C@@H](C)O)NC(=O)[C@H]([C@H](O)[C@@H](O)c2ccc(O)cc2)NC(=O)[C@@H]2C[C@@H](O)CN2C(=O)[C@H]([C@@H](C)O)NC1=O [Example 4] (Palmitoleoyl-[Orn(4R-OH,5R-OH)]T[Hyp][hTyr(3S-OH,4S-OH)]T[Pro(3S-OH,4S-Me)]; lactam 1-C) |  |  |  |  |  | > 40 | 20 |  |  |  | 
4 |  | 0.625 μg/disc | 0.039 | 97000 | CCCCCCCCCCCCCCCCC(=O)N[C@H]1C[C@@H](O)[C@@H](O)NC(=O)[C@@H]2[C@@H](O)[C@@H](C)CN2C(=O)[C@H]([C@@H](C)O)NC(=O)[C@H]([C@H](O)[C@@H](O)c2ccc(O)cc2)NC(=O)[C@@H]2C[C@@H](O)CN2C(=O)[C@H]([C@@H](C)O)NC1=O [Example 5] (Heptadecanoyl-[Orn(4R-OH,5R-OH)]T[Hyp][hTyr(3S-OH,4S-OH)]T[Pro(3S-OH,4S-Me)]; lactam 1-C) | 30 |  |  | 18 | 21 | 9 | ≥ 5 | 40 |  |  | 
5 | 0 | 0.625 μg/disc |  |  | CCCCCCCC/C=C\CCCCCCCC(=O)N[C@H]1C[C@@H](O)[C@@H](O)NC(=O)[C@@H]2[C@@H](O)[C@@H](C)CN2C(=O)[C@H]([C@@H](C)O)NC(=O)[C@H]([C@H](O)[C@@H](O)c2ccc(O)cc2)NC(=O)[C@@H]2C[C@@H](O)CN2C(=O)[C@H]([C@@H](C)O)NC1=O [Example 7] (Oleoyl-[Orn(4R-OH,5R-OH)]T[Hyp][hTyr(3S-OH,4S-OH)]T[Pro(3S-OH,4S-Me)]; lactam 1-C) | 19 |  |  | 23 | 18 |  | 10 |  |  | 20 | 1
6 |  | 0.156 μg/disc | < 0.039 | 65000 | CCCCCCCC/C=C/CCCCCCCC(=O)N[C@H]1C[C@@H](O)[C@@H](O)NC(=O)[C@@H]2[C@@H](O)[C@@H](C)CN2C(=O)[C@H]([C@@H](C)O)NC(=O)[C@H]([C@H](O)[C@@H](O)c2ccc(O)cc2)NC(=O)[C@@H]2C[C@@H](O)CN2C(=O)[C@H]([C@@H](C)O)NC1=O [Example 8] (X3-[Orn(4R-OH,5R-OH)]T[Hyp][hTyr(3S-OH,4S-OH)]T[Pro(3S-OH,4S-Me)]; lactam 1-C) | 18 |  |  | 21 | 32 | 11 | 10 | 31 |  |  | 
7 |  | 0.312 μg/disc | < 0.039 | 4200 | CCCCCC/C=C\CCCCCCCCCC(=O)N[C@H]1C[C@@H](O)[C@@H](O)NC(=O)[C@@H]2[C@@H](O)[C@@H](C)CN2C(=O)[C@H]([C@@H](C)O)NC(=O)[C@H]([C@H](O)[C@@H](O)c2ccc(O)cc2)NC(=O)[C@@H]2C[C@@H](O)CN2C(=O)[C@H]([C@@H](C)O)NC1=O [Example 9] (X6-[Orn(4R-OH,5R-OH)]T[Hyp][hTyr(3S-OH,4S-OH)]T[Pro(3S-OH,4S-Me)]; lactam 1-C) |  |  |  |  |  | > 40 | 40 |  |  |  | 
8 |  | 0.156 μg/disc | < 0.039 | 610 | CCCCC/C=C/C/C=C/CCCCCCCC(=O)N[C@H]1C[C@@H](O)[C@@H](O)NC(=O)[C@@H]2[C@@H](O)[C@@H](C)CN2C(=O)[C@H]([C@@H](C)O)NC(=O)[C@H]([C@H](O)[C@@H](O)c2ccc(O)cc2)NC(=O)[C@@H]2C[C@@H](O)CN2C(=O)[C@H]([C@@H](C)O)NC1=O [Example 10] (X2-[Orn(4R-OH,5R-OH)]T[Hyp][hTyr(3S-OH,4S-OH)]T[Pro(3S-OH,4S-Me)]; lactam 1-C) | 24 |  |  | 24 |  | 16 | 10 |  | 26 |  | 36
9 |  | 1.25 μg/disc and 2.5 μg/disc |  |  | CCCCCCCC/C=C\CCCCCCCCCC(=O)N[C@H]1C[C@@H](O)[C@@H](O)NC(=O)[C@@H]2[C@@H](O)[C@@H](C)CN2C(=O)[C@H]([C@@H](C)O)NC(=O)[C@H]([C@H](O)[C@@H](O)c2ccc(O)cc2)NC(=O)[C@@H]2C[C@@H](O)CN2C(=O)[C@H]([C@@H](C)O)NC1=O [Example 14] (X4-[Orn(4R-OH,5R-OH)]T[Hyp][hTyr(3S-OH,4S-OH)]T[Pro(3S-OH,4S-Me)]; lactam 1-C) | 18 |  |  | 22 | 18 |  | 10 | 23 |  |  | 
